Reference: patent publication US7521427B2 (Georgia Tech Research Corporation, priority 2004, dated 2009)
Where two headings read alike, the source gives them in different places.

Experiments:
cathepsin L [1] = target: T1, cathepsin L (Homo sapiens, UniProt P07711); assay: Cathepsin L progress curve inhibition assay; type: biochemical; settings: corrected for substrate; for kinact/KI: pH 5.5, progress curve method, read-out: kobs/[I] Cathepsin L
T1 construct: purchased Athens Research & Technology (Athens, Ga.)
Method: Cathepsin L was purchased from Athens Research & Technology (Athens, Ga.) in a 20 mM malonate buffer solution at pH 5.5 with 1 mM EDTA and 400 mM NaCl with a specific activity of 4.133 U/mg. The progress of cathepsin L inhibition was conducted with 243 μL of a solution of 0.25 M NaAc, 2 mM EDTA, 0.015% Brij, 5 mM DTT (dithiothreitol) at pH 5.5, 4 μL of Cbz-Phe-Arg-AMC substrate solution (16 mM) in DMSO (2% final concentration). Activity was monitored by following the change in fluorescence for 20 min at 465 nm. The kobs values were obtained by non-linear regression analysis and corrected for substrate (1+[S]/KM=1.274). All assays were run in duplicate and the standard deviation was determined.

papain = target: T2, papain (Carica papaya, UniProt P00784); assay: Papain incubation method inhibition assay; type: biochemical; settings: for kinact/KI: pH 7.5, read-out: kobs/[I] Papain, incubation method; for kobs/[I] Papain: incubation method, pH 7.5
T2 construct: purchased
T2 sequence (P00784 134-345): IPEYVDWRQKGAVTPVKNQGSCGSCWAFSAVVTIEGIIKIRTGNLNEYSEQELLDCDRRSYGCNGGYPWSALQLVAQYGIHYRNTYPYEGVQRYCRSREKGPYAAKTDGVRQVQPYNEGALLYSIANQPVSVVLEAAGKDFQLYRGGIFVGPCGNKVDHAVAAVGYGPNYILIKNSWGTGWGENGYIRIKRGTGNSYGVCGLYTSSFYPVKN
Method: (§1) The incubation method was used to measure the irreversible inhibition of papain and cathepsin B. With cathepsin B, 30 μL of a stock inhibitor solution was added to 300 μL of a 0.1 M potassium phosphate buffer containing 1.25 mM EDTA, 0.01% Brij 35 at pH 6.0, followed by the addition of 30 μL of a freshly prepared cathepsin B solution (approximate concentration 6.98×10^−3 μg/μL) in the same potassium phosphate buffer containing 1 mM DTT (freshly prepared). Aliquots (50 μL) from the inhibition mixture were withdrawn at various time intervals and added to 200 μL of a 0.1 M potassium phosphate buffer containing 1.25 mM EDTA, 0.01% Brij 35 at pH 6.0, and the substrate Cbz-Arg-Arg-AMC (499 μM). The release of 7-amino-4-methylcoumarin was monitored (λex=360 nm, λem=465 nm) using a Tecan Spectra Fluor microplate reader. Pseudo first-order inactivation rate constants were obtained from plots of In vt/vo versus time.
The incubation method was also used for commercially available papain. The inhibition incubation buffer for papain was 50 mM Hepes buffer at pH 7.5, containing 2.5 mM DTT (dithiothreitol) and 2.5 mM EDTA. The assay used the substrate Cbz-Phe-Arg-pNA (53.7 μM) in the same buffer. The approximate concentration of papain added to the incubation buffer was 0.29 mg/mL. The release of p-nitroanilide was monitored at 405 nm with a Molecular Devices Thermomax microplate reader. All assays were run in duplicate.

cathepsin B [2] = target: T3, cathepsin B (Homo sapiens, UniProt P07858); assay: Cathepsin B incubation method inhibition assay; type: biochemical; settings: pH 6.0, 23° C., N.I. = no inhibition after 20 minutes of incubation
Method: as §1

[3] = target: purified recombinant rhodesain (Trypanosoma brucei rhodesiense, UniProt Q95PM0); assay: Rhodesain IC50 determination; type: biochemical, Trypanosoma brucei rhodensiense; settings: for IC50: rhodesain 3 nM, 5 minutes preincubation at room temperature, pH 5.5
Method: (§2) Inhibitors were screened for effectiveness against purified recombinant cruzain and rhodesain. Cruzain (2 nM) or rhodesain (3 nM) was incubated with 0.0001 to 1 μM inhibitor in 100 mM sodium acetate buffer, pH 5.5 and 5 mM DTT (buffer A), for 5 minutes at room temperature. Buffer A containing Cbz-Phe-Arg-AMC (Bachem, KM=1 μM, AMC=7-amino-4-methylcoumarin) was added to the enzyme and inhibitor to give 20 or 10 μM substrate concentration for cruzain and rhodesain, respectively, in 200 μL. The increase in fluorescence (excitation at 355 nm and emission at 460 nm) was followed with an automated microtiter plate spectrofluorimeter (Molecular Devices, Flex Station). Inhibitor stock solutions were prepared at 20 mM in DMSO and serial dilutions were made in DMSO (0.7% DMSO in assay). Controls were performed using enzyme alone, and enzyme with DMSO. IC50 values were determined graphically using inhibitor concentrations in the linear portion of a plot of enzyme activity versus log [I] (7 concentrations tested with at least 2 in the linear range).

calpain I = target: T4, calpain I (Homo sapiens, UniProt P07384); assay: Calpain I irreversible inhibition assay; type: biochemical, porcine; settings: 23° C.; for kinact/KI: read-out: kobs/[I] Calpain I
T4 construct: purchased Calbiochem (La Jolla, Calif.)
T4 sequence (P07384 1-714): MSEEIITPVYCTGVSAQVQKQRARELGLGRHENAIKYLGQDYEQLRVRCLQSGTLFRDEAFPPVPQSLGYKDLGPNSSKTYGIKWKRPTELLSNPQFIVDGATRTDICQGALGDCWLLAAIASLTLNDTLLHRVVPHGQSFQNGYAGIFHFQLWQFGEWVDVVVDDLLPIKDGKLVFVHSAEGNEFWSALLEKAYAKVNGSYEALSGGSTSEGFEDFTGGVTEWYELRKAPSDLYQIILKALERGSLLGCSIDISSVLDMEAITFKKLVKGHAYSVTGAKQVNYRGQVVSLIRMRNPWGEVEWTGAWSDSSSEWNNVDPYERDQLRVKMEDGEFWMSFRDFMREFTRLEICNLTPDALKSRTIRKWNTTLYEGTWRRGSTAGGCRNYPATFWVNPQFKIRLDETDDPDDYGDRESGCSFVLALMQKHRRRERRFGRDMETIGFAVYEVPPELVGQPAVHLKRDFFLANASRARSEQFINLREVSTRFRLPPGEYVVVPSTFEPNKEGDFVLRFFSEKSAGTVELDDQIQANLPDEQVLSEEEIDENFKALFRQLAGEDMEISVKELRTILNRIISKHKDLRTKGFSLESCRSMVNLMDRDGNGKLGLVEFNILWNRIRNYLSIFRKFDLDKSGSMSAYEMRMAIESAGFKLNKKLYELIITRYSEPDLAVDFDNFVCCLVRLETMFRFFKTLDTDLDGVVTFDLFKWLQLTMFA
T4 sequence (P04632 1-268 partner): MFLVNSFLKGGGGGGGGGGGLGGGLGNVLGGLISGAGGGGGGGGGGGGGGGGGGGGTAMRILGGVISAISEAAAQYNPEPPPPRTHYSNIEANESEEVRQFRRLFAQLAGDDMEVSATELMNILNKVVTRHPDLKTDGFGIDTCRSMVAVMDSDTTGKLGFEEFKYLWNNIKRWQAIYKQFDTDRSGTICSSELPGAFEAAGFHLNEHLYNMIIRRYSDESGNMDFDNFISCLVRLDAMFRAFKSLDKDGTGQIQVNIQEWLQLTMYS
Method: Calpain I was purchased from Calbiochem (La Jolla, Calif.) in a solution of 30% glycerol at a concentration of 6.96 μM and stored at −20° C. prior to use. The calpain I assay was conducted with 235 μL of a solution of 50 mM Hepes, […], at pH 7.5 (calpain I buffer), 6.5 μL of Suc-Leu-Tyr-AMC substrate solution in DMSO and 4.2 μL of the enzyme solution (6.96 μM) at 23° C. The enzymatic activity was monitored by following the change in fluorescence for 10 min at 465 nm. The k2 values were obtained by non-linear regression analysis and corrected for substrate (1+[S]/KM=1.274). All assays were run in duplicate and the standard deviation was determined.

[4] = target: purified recombinant cruzain (Trypanosoma cruzi, UniProt P25779); assay: Cruzain IC50 determination; type: biochemical; settings: for IC50: cruzain 2 nM, 5 minutes preincubation at room temperature, pH 5.5
Method: as §2

cathepsin H = target: T5, cathepsin H (Homo sapiens, UniProt P09668); settings: irreversible inhibition; cited from earlier work
T5 sequence (P09668 98-335): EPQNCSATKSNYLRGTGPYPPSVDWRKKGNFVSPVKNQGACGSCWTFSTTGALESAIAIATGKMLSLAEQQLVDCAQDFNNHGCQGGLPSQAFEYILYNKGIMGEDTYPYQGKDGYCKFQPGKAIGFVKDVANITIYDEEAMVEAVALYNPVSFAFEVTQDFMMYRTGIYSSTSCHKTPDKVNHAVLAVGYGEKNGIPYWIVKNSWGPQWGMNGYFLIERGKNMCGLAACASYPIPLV

cathepsin B [5] = target: T3, cathepsin B; settings: irreversible inhibition; cited from earlier work
cathepsin L [6] = target: T1, cathepsin L; settings: irreversible inhibition; cited from earlier work
[7] = pH 7.5, incubation method, plots of ln vt/v0 vs time
[8] = pH 7.5, progress curve method, corrected for substrate

Sequence of purified recombinant cruzain (P25779 123-467): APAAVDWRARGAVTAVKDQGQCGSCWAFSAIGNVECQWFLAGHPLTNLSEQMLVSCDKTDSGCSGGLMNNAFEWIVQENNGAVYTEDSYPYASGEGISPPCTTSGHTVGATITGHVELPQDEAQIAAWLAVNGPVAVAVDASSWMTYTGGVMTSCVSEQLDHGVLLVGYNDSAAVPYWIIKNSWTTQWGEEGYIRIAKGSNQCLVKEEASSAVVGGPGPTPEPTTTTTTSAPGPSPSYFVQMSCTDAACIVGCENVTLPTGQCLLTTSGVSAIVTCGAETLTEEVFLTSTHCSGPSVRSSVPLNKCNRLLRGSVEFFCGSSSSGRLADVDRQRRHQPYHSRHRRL
T1 sequence (P07711 114-333): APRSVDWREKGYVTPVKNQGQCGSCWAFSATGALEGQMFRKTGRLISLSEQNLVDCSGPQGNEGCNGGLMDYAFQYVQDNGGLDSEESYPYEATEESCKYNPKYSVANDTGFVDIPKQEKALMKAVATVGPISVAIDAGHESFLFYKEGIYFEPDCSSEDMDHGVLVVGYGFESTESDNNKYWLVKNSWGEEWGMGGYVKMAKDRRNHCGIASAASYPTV
Sequence of purified recombinant rhodesain (Q95PM0 entry or part of it): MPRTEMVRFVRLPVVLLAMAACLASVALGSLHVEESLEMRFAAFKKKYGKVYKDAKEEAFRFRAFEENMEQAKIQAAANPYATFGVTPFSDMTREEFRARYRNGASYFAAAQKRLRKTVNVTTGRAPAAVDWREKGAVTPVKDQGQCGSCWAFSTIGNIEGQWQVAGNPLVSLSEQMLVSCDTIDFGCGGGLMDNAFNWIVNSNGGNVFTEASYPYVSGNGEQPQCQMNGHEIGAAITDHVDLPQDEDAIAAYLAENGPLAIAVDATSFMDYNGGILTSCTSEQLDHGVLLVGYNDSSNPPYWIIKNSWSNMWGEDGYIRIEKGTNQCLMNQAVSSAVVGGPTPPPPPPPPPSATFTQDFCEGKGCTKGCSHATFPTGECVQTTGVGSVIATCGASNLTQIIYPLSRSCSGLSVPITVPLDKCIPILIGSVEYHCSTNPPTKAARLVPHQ

SMILES | kinact/KI (cathepsin L [1]) | kinact/KI (papain) | kobs/[I] Cathepsin B (cathepsin B [2]) | IC50 ([3]; IC50 Rhodesain) | kinact/KI (calpain I; [7]) | IC50 ([4]; read-out: IC50 Cruzain) | kobs/[I] Papain (papain) | fold less potent with rhodesain than the corresponding allyl sulfone Cbz-Leu-Phe-AS-Ph ([3]; ratio of IC50 values) | IC50 ([3]; read-out: IC50 Rhodesain) | kinact/KI (calpain I; [8]) | IC50 ([4]; IC50 Cruzain) | fold less potent with cruzain than the corresponding allyl sulfone Cbz-Leu-Phe-AS-Ph ([4]; ratio of IC50 values) | inhibition of cathepsin H (cathepsin H) | kapp cathepsin B (cathepsin B [5]) | kapp cathepsin L (cathepsin L [6]) | kobs/[I] Cathepsin L (cathepsin L [1]; progress curve method, pH 5.5) | kobs/[I] Calpain I (calpain I; progress curve method, corrected for substrate, pH 7.5)
C[C@H](NC(=O)OCc1ccccc1)C(=O)NC(=CCS(=O)(=O)c1ccccc1)Cc1ccccc1 (mixture of isomers) [Cbz-Ala-Phe-AS-Ph, Phenyl-3-(N-carbobenzyloxyalanyl)amino-4-phenylbut-2-enyl Sulfone] | 183 ± 10 M⁻¹ s⁻¹ | 9 M⁻¹ s⁻¹ | N.I.^f | > 10000 nM | 3 M⁻¹ s⁻¹ | > 10000 nM |  |  |  |  |  |  |  |  |  |  | 
CC(C)C[C@H](NC(=O)OCc1ccccc1)C(=O)NC(=CCS(=O)(=O)c1ccccc1)Cc1ccccc1 (single isomer, unassigned) [Cbz-Leu-Phe-AS-Ph (Isomer A), Phenyl-3-(N-carbobenzyloxyleucyl)amino-4-phenylbut-2-enyl Sulfone] | 700 ± 43 M⁻¹ s⁻¹ |  | N.I. | 40 nM | 23 ± 4 M⁻¹ s⁻¹ | 60 nM | 49 M⁻¹ s⁻¹ |  |  |  |  |  |  |  |  |  | 
CC(C)C[C@H](NC(=O)OCc1ccccc1)C(=O)N[C@H](C=CS(=O)(=O)c1ccccc1)Cc1ccccc1 [reference compound] | 219 ± 96 M⁻¹ s⁻¹ | 10 M⁻¹ s⁻¹ | N.I. |  |  |  |  | > 12 fold | 500 nM | 550 ± 2 M⁻¹ s⁻¹ | 2000 nM | over 30 fold |  |  |  |  | 
CC(C)[C@H](NC(=O)OCc1ccccc1)C(=O)NC(=CCS(=O)(=O)c1ccccc1)Cc1ccccc1 (mixture of isomers) [Cbz-Val-Phe-AS-Ph, Phenyl-3-(N-carbobenzyloxyvalyl)amino-4-phenylbut-2-enyl Sulfone] | 310 ± 52 M⁻¹ s⁻¹ | 6 ± 1 M⁻¹ s⁻¹ | N.I. | 5000 nM | 3 M⁻¹ s⁻¹ | 6000 nM |  |  |  |  |  |  |  |  |  |  | 
CC(C)CCNC(=O)[C@H](CC(C)C)NC(=O)/C=C/C(=O)O (stereo in doubt) [fumarate derivative of E-64c, trans-HOOCCH═CH—CO-Leu-NH(CH2)2CH(CH3)2] |  |  |  |  |  |  |  |  |  |  |  |  | inhibits | 625 M⁻¹ s⁻¹ | 2272 M⁻¹ s⁻¹ |  | 
CC(C)C[C@H](NC(=O)OCc1ccccc1)C(=O)NC(=CCS(=O)(=O)c1ccccc1)Cc1ccccc1 (single isomer, unassigned) [Cbz-Leu-Phe-AS-Ph (Isomer B), Phenyl-3-(N-carbobenzyloxyleucyl)amino-4-phenylbut-2-enyl Sulfone] |  |  | N.I. | 180 nM |  | 300 nM | 15 ± 1 M⁻¹ s⁻¹ |  |  | 564 ± 32 M⁻¹ s⁻¹ |  |  |  |  |  | 1062 M⁻¹ s⁻¹ | 564 M⁻¹ s⁻¹
